US6794509B1, “Compounds for fluorescence labeling” (Fuji Photo Film Co., Ltd., priority 1999, dated 2004)

Key:
[1] = Comparison of relative fluorescence quantum yield (absorption and fluorescence spectra of dye solutions); format: physicochemical; conditions: for Absorption maximum (nm) / Fluorescence maximum (nm): ethanol solution of dye; for Fluorescence maximum (nm) / Relative fluorescence quantum yield: absorbance 0.1 at 620 nm; for Fluorescence maximum (nm): spectrum measured at 620 nm; for Relative fluorescence quantum yield: ethanol solution, area of fluorescence spectrum relative to Crystal Violet (Φf=0.54)
Procedure: Measurement and calculation of relative quantum yield were performed according to the method described in Journal of Chemical Society, Faraday Trans., 92, 4917-4925 (1996). The structures of the conventional cyanine dye used as comparative dyes are shown below.
(2) Fluorescence spectrum was measured at an […] wavelength of 620 nm.
(3) Area value of fluorescence spectrum was calculated.
(4) Relative value was calculated based on the area value of Crystal Violet of which absolute fluorescence quantum yield was known (Φf=0.54).

[2] = known value of the standard; cited from earlier work

Row | Compound | Absorption maximum (nm) [1] [nm] | Fluorescence maximum (nm) [1] [nm] | Relative fluorescence quantum yield [1] | absolute fluorescence quantum yield (Φf) [2]
1 | CN(C)c1ccc(C(=C2C=CC(=[N+](C)C)C=C2)c2ccc(N(C)C)cc2)cc1 [Crystal Violet] | – | – | – | 0.54
2 | CC[N+]1=C(/C=C/C=C/C=C2/N(CCCCCC(=O)O)c3ccc(S(=O)(=O)[O-])cc3C2(C)C)C(C)(C)c2cc(S(=O)(=O)[O-])ccc21.[K+] [compound 2, reference compound] | 645 | 664 | 0.27 | –

Further lines, with some results ahead:

Row | Absorption maximum (nm) [1] [nm] | Fluorescence maximum (nm) [1] [nm] | Relative fluorescence quantum yield [1] | Compound | absolute fluorescence quantum yield (Φf) [2]
3 | 651 | 672 | 0.63 | CC(CC[n+]1cc(C#Cc2ccc(N(CCCS(=O)(=O)[O-])S(C)(=O)=O)cc2)cc2c1N=C(/C=C/C=C1\N=C3C(=CC(C#Cc4ccc(N(CCCS(=O)(=O)[O-])S(C)(=O)=O)cc4)=CN3CCCCCC(=O)O)C1(C)C)C2(C)C)S(=O)(=O)[O-].[K+].[K+] (stereo not shown) [Compound I-11] | –
4 | 650 | 671 | 0.62 | CC1(C)C2=CC(C#Cc3cccc(N(CCCS(=O)(=O)[O-])S(C)(=O)=O)c3)=CN(CCCCCC(=O)O)C2=N/C1=C\C=C\C1=Nc2c(cc(C#Cc3cccc(N(CCCS(=O)(=O)[O-])S(C)(=O)=O)c3)c[n+]2CCCS(=O)(=O)[O-])C1(C)C.[K+].[K+] [Compound I-12] | –
5 | 651 | 672 | 0.63 | CC(CCN1C=C(C#Cc2ccc(N(CCCS(=O)(=O)[O-])S(C)(=O)=O)cc2)C=C2C1=N/C(=C\C=C\C1=Nc3c(cc(C#Cc4ccc(N(CCCCCC(=O)O)S(C)(=O)=O)cc4)c[n+]3CCC(C)S(=O)(=O)[O-])C1(C)C)C2(C)C)S(=O)(=O)[O-].[K+].[K+] (stereo not shown) [Compound I-13] | –
